Reference: publication PMC4520450, “Procyanidins Negatively Affect the Activity of the Phosphatases of Regenerating Liver” (PLoS ONE, 2015)

Experiments:
Assay type in all cases: biochemical
PP1 = target: T1, PP1 (Oryctolagus cuniculus, UniProt P62139); assay: DiFMUP assay for PP1; settings: 2 mU PP1c, 30 min preincubation, 25°C, DiFMUP, no BSA; mean ± SEM (n = 3–5); read-out: IC50 (Ki) PP1
T1 construct: purchased NewEngland Biolabs; host or cells: E. coli
Method: (§1) Fig 2 Effect of polyphenolic compounds 8 (A), 9 (B), 10 (C) and 11 (D) on the phosphatase activity of PRL-1, PRL-2, PRL-3, PP1, and PP2A. Proteins were incubated for 30 min with 0–1000 μM of the corresponding procyandin 8–11. Phosphatase activity was measured in the presence of DiFMUP at 25°C using the concentration corresponding to the KM of each protein. The KM for PRLs was determined separately (PRL-3 = 21 μM, PRL-2 and PRL-1 = 24 μM). The KM for PP1 (91 μM) and for PP2A (100 μM) was taken from the literature. Protein concentrations are 50 nM for all PRLs and 2 mU for PP1 and 0.05 U for PP2A (see the Experimental Procedures). Phosphatase activity in the absence of inhibitors was set as 100%. Data represent means ± standard errors of the mean (n = 3–5).
BSA, which is usually supplemented to the assay buffer for stabilizing the PPs was however excluded, as BSA is known to form complexes with polyphenolic compounds [40–42] and thus would decrease the concentrations of the inhibitor in the assay. […] In contrast, the phosphatase activity of PP2A was suppressed to a much lesser extent with weak (for trimer 9 and hexamer 11) and strong statistical significance (dimer 8 and tetramer 10). Thus our results corroborate the data reported previously.
DiFMUP assay for PP1: In a final reaction volume of 100 μL PP1c (2 mU final concentration, according to manufacturer’s instructions) were incubated with decreasing concentrations of the inhibitory polyphenols for 30 minutes at 25°C. The assay buffer contained 25 mM imidazole (pH 7.4), 1 mM dithiothreitol (DTT), and 50 mM NaCl. Bovine serum albumin (BSA) was excluded due to possible binding of the polyphenolic compounds. After the incubation time 20 μL DiFMUP (6,8-Difluoro-4-methylumbelliferyl phosphate) was added to reach a final concentration of 100 μM. Monitoring of the fluorescent dephosphorylation product was monitored and data analyzed as described above.

PRL-1 = target: T2, PRL-1 (Homo sapiens, UniProt Q93096); assay: DiFMUP phosphatase activity assay for PRLs; settings: for IC50: 50 nM PRL-1, 30 min preincubation, 25°C, 24 μM DiFMUP, mean ± SEM (n = 3–5), read-out: IC50 (Ki) PRL-1
T2 construct: His-TEV (cleaved yes); made in house
T2 sequence (Q93096 1-173): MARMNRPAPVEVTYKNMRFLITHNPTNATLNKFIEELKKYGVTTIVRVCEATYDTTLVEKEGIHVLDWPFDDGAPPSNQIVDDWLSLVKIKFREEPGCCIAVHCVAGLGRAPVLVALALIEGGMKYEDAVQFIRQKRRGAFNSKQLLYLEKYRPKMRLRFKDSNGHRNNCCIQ
Method: as §1
(§2) DiFMUP assay for PRLs: In a final reaction volume of 100 μL the PRLs (50 nM final concentration) were incubated with decreasing concentrations of the inhibitory polyphenols for 30 minutes at 25°C. The buffer conditions were 108 mM TrisCl (pH 7.5), Triton 0.05% (v/v), DTT 27.0 mM, NaCl 811 mM. After the incubation time 20 μL DiFMUP (6,8-Difluoro-4-methylumbelliferyl phosphate) was added to reach a final concentration of 21 μM for PRL-3 and 24 μM for PRL-1 and PRL-2. On a Tecan safire2 (Tecan, Salzburg, Austria) plate reader dephosphorylation of the substrate to its fluorescent product was monitored by following the emission at 358 nm with excitation at 452 nm for 20 minutes. All measurements were done in triplicates, and the experiments were repeated at least three times. The slopes of the initial phases were obtained by linear regression of the data points. The normalized reaction rates were plotted versus the log of the inhibitor concentrations and the IC50 values were obtained by fitting the curves using the one site competition model of GraphPad Prism (GraphPad Software, Version 5). KM values were determined by measuring reaction kinetics of substrate dilution series. Initial velocities were plotted against DiFMUP concentration and the data was analyzed by Michaelis-Menten kinetics curve fitting of GraphPad Prism. A final DMSO content of 0.4% was maintained for the monomeric catechins. Due to the high water solubility of the procyanidins DMSO was not required and measurements were done in assay buffer only.

PRL-2 = target: T3, PRL-2 (Homo sapiens, UniProt Q12974); assay: DiFMUP phosphatase activity assay for PRLs; settings: 50 nM PRL-2, 30 min preincubation, 25°C, 24 μM DiFMUP; mean ± SEM (n = 3–5); read-out: IC50 (Ki) PRL-2
T3 construct: His-TEV (cleaved yes); made in house
T3 sequence (Q12974 1-167): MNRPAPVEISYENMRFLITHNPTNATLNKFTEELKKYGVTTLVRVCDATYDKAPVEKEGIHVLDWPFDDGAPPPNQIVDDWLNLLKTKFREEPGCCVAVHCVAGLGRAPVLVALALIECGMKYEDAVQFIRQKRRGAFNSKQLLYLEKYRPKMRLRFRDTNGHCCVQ
Method: as §1, §2

T1 sequence (P62139 whole entry): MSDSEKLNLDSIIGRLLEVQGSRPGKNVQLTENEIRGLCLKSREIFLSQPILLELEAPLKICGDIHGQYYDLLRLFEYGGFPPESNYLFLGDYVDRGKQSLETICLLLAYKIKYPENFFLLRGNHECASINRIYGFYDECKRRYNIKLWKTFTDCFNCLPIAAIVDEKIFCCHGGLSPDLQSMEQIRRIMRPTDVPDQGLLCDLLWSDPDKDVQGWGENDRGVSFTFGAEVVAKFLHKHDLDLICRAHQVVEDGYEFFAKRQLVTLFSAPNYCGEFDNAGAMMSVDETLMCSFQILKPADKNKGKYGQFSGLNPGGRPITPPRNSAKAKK

Row | SMILES | IC50 (PP1) [µM] | IC50 (PRL-1) [µM] | fold higher activity toward PRL-1 compared to PRL-3 (PRL-1; in vitro, from IC50 values) [fold] | IC50 (PRL-2) [µM]
1 | Oc1cc(O)c2c(c1)O[C@H](c1ccc(O)c(O)c1)[C@@H](O)[C@@H]2c1c(O)cc(O)c2c1O[C@H](c1ccc(O)c(O)c1)[C@@H](O)C2 [Procyanidin B3 (8), Procyanidin B3] | 383 ± 43 | 3.3 ± 1.2 | 38 | 103 ± 1.1
2 | Oc1cc(O)c2c(c1)O[C@H](c1ccc(O)c(O)c1)[C@@H](O)[C@@H]2c1c(O)cc(O)c2c1O[C@H](c1ccc(O)c(O)c1)[C@@H](O)[C@@H]2c1c(O)cc(O)c2c1O[C@H](c1ccc(O)c(O)c1)[C@@H](O)C2 [Procyanidin C2 (9), Procyanidin C2] | 88 ± 13.7 | 1.8 ± 1.1 | – | 15.2 ± 1.4
